According to PubChem BioAssay AID328 (DTP/NCI, 2004):
Several values for one entry are separate records, joined by “and”; a condition that tells them apart may be missing. Equal entries are not always repeated. Inconclusive results and toxic doses are left out.

System: BDF1 mice, P388 leukemia ip, median survival T/C
Experiment: NCI In Vivo Anticancer Drug Screen. Data for tumor model P388 Leukemia (intraperitoneal) in B6D2F1 (BDF1) mice
Details: endpoint: median survival time, higher = longer survival
How it was run: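 T/C = treated-group survival ÷ vehicle-control survival; tumour transplanted into mice before dosing.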

[1] = dose: 50.0 mg/kg/injection, schedule: Q01DX009 (ip), vehicle: Klucel (hydroxypropylcellulose) (HPC)
[2] = dose: 100.0 mg/kg/injection, schedule: Q01DX009 (ip), vehicle: Klucel (hydroxypropylcellulose) (HPC)

SMILES: CC1(C)N=C(N)N=C(N)N1c1ccc(OCc2ccc(C(=O)Nc3cccc(S(=O)(=O)F)c3)cc2)c(Cl)c1
- T/C (dose: 6.25 mg/kg/injection, schedule: Q01DX009 (ip), vehicle: Klucel (hydroxypropylcellulose) (HPC)): 206 % of control
- T/C (dose: 6.25 mg/kg/injection, schedule: Q04DX003 (ip), vehicle: Klucel (hydroxypropylcellulose) (HPC)): 163 % of control
- T/C (dose: 12.5 mg/kg/injection, schedule: Q01DX009 (ip), vehicle: Klucel (hydroxypropylcellulose) (HPC)): 247 % of control
- T/C (dose: 12.5 mg/kg/injection, schedule: Q04DX003 (ip), vehicle: Klucel (hydroxypropylcellulose) (HPC)): 162 % of control and 184 % of control
- T/C (dose: 25.0 mg/kg/injection, schedule: Q01DX009 (ip), vehicle: Klucel (hydroxypropylcellulose) (HPC)): 308 % of control
- T/C (dose: 25.0 mg/kg/injection, schedule: Q04DX003 (ip), vehicle: Klucel (hydroxypropylcellulose) (HPC)): 186 % of control and 223 % of control
- T/C [1]: 110 % of control
- T/C (dose: 50.0 mg/kg/injection, schedule: Q04DX003 (ip), vehicle: Klucel (hydroxypropylcellulose) (HPC)): 263 % of control and 189 % of control
- T/C [2]: 95 % of control
- T/C (dose: 100.0 mg/kg/injection, schedule: Q04DX003 (ip), vehicle: Klucel (hydroxypropylcellulose) (HPC)): 95 % of control and 119 % of control

SMILES: O=C(Cn1ccc(=O)[nH]c1=O)N1CCC2(CC1)SSC1(CCN(C(=O)Cn3ccc(=O)[nH]c3=O)CC1)S2
- T/C (dose: 100.0 mg/kg/injection, schedule: Q04DX003 (ip), vehicle: saline): 100 % of control
- T/C (dose: 200.0 mg/kg/injection, schedule: Q04DX003 (ip), vehicle: saline): 109 % of control
- T/C (dose: 400.0 mg/kg/injection, schedule: Q04DX003 (ip), vehicle: saline): 90 % of control

SMILES: NC(=O)C1(c2ccccc2)CCN(Cc2ccccc2)CC1
- T/C (dose: 50.0 mg/kg/injection, schedule: Q01DX009 (ip), vehicle: saline with Tween-80): 96 % of control
- T/C (dose: 50.0 mg/kg/injection, schedule: Q04DX003 (ip), vehicle: saline with Tween-80): 100 % of control
- T/C (dose: 100.0 mg/kg/injection, schedule: Q01DX009 (ip), vehicle: saline with Tween-80): 111 % of control
- T/C (dose: 100.0 mg/kg/injection, schedule: Q04DX003 (ip), vehicle: saline with Tween-80): 90 % of control

SMILES: O=C(CC(c1ccccc1)C(C(=O)O)c1ccccc1)c1ccccc1 (centres undefined)
- T/C [1]: 101 % of control
- T/C [2]: 92 % of control

SMILES: CCOC(=O)CNC(=O)N(CC)C12CC3CC(CC(C3)C1)C2
- T/C [2]: 94 % of control
- T/C (dose: 130.0 mg/kg/injection, schedule: Q01DX009 (ip), vehicle: Klucel (hydroxypropylcellulose) (HPC)): 111 % of control
- T/C (dose: 200.0 mg/kg/injection, schedule: Q01DX009 (ip), vehicle: Klucel (hydroxypropylcellulose) (HPC)): 100 % of control
- T/C (dose: 300.0 mg/kg/injection, schedule: Q01DX009 (ip), vehicle: Klucel (hydroxypropylcellulose) (HPC)): 109 % of control
- T/C (dose: 400.0 mg/kg/injection, schedule: Q01DX009 (ip), vehicle: Klucel (hydroxypropylcellulose) (HPC)): 122 % of control

SMILES: CCCCCCCCCCCCCCCCCC(=O)[O][Hg][c]1ccccc1
- T/C (dose: 5.0 mg/kg/injection, schedule: Q01DX009 (ip), vehicle: Klucel (hydroxypropylcellulose) (HPC)): 100 % of control
- T/C (dose: 5.5 mg/kg/injection, schedule: Q01DX001 (ip), vehicle: Klucel (hydroxypropylcellulose) (HPC)): 104 % of control
- T/C (dose: 10.0 mg/kg/injection, schedule: Q01DX009 (ip), vehicle: Klucel (hydroxypropylcellulose) (HPC)): 104 % of control
- T/C (dose: 10.0 mg/kg/injection, schedule: Q01DX009 (ip), vehicle: other): 115 % of control
- T/C (dose: 11.0 mg/kg/injection, schedule: Q01DX001 (ip), vehicle: Klucel (hydroxypropylcellulose) (HPC)): 95 % of control
- T/C (dose: 14.0 mg/kg/injection, schedule: Q04DX003 (ip), vehicle: Klucel (hydroxypropylcellulose) (HPC)): 115 % of control
- T/C (dose: 20.0 mg/kg/injection, schedule: Q01DX009 (ip), vehicle: Klucel (hydroxypropylcellulose) (HPC)): 109 % of control
- T/C (dose: 22.0 mg/kg/injection, schedule: Q04DX003 (ip), vehicle: Klucel (hydroxypropylcellulose) (HPC)): 120 % of control

SMILES: O=S(=O)(Nc1cc(Cl)c(NS(=O)(=O)c2ccccc2)cc1Cl)c1ccccc1
- T/C (dose: 100.0 mg/kg/injection, schedule: Q01DX001 (ip), vehicle: saline with Tween-80): 95 % of control
- T/C (dose: 200.0 mg/kg/injection, schedule: Q01DX001 (ip), vehicle: saline with Tween-80): 90 % of control
- T/C (dose: 400.0 mg/kg/injection, schedule: Q01DX001 (ip), vehicle: saline with Tween-80): 86 % of control

SMILES: N=C(N)SC(c1ccccc1)c1ccccc1
- T/C (dose: 100.0 mg/kg/injection, schedule: Q01DX001 (ip), vehicle: Klucel (hydroxypropylcellulose) (HPC)): 100 % of control
- T/C (dose: 200.0 mg/kg/injection, schedule: Q01DX001 (ip), vehicle: Klucel (hydroxypropylcellulose) (HPC)): 104 % of control

SMILES: CCCCNc1c(OC)ccc2c(C)c3[n+](cc12)CCc1cc(OC)c(OC)cc1-3
- T/C (dose: 1.56 mg/kg/injection, schedule: Q04DX003 (ip), vehicle: water): 103 % of control
- T/C (dose: 3.13 mg/kg/injection, schedule: Q04DX003 (ip), vehicle: water): 103 % of control
